Consider one compound from patent US20070167511A1, “Medicinal composition for prevention or treatment of overactive bladder accompanying nervous disorder” (KISSEI PHARMACEUTICAL CO,. LTD., priority 2004, published 2007).

The subject of this assay is rat spinal cord injured OAB model. As to the kind of experiment: Urodynamic study (cystometry) in rat spinal cord injured OAB model. The conditions noted are these: conscious female rats with spinal cord transection at Th10, intravenous injection 0.1 mg/kg. The assay is classed as in vivo. As for the experimental part: Efficacy on Urodynamic Study in Rat Spinal Cord Injured OAB Model
In ether anesthetized female rats, spinal cord transection was performed at the level of Th10. About 1 month after the spinal cord transection, each rat was anesthetized with pentobarbital and a catheter filled with saline was implanted into the urinary bladder, ligated, secured on the back of the neck and closed. Seven days after the bladder catheter implantation, another catheter filled with heparin-containing saline was implanted into the […], and ligated, secured on the back of the neck and closed. The next day, cystometry was performed in the conscious rat under free moving. Saline was instilled into the urinary bladder at a rate of 12 mL/hr. A drug was injected through the […] catheter that was secured on the back of the neck. […] Intravenous injection of compound 1 (0.1 mg/kg) prolonged the micturition interval by about 20% (FIG. 1) and decreased the frequency of involuntary contraction in filling phase by 20% (FIG. 2) in the same model.

SMILES strings stand for the structures.

For the compound `C[C@H](Cc1cc2c(c(C(N)=O)c1)N(CCCO)CC2)NCCOc1ccccc1OCC(F)(F)F` [compound 1, (−)-1-(3-hydroxypropyl)-5-((2R)-2-{[2-({2-[(2,2,2-trifluoroethyl)oxy]phenyl}oxy)ethyl]amino}propyl)-2,3-dihydro-1H-indol-7-yl-carboxamide], the “prolongation of the micturition interval” value (versus value before drug administration (FIG. 1)) was “about 20%”. Also, the “decrease of the frequency of involuntary contraction in filling phase” value (versus value before drug administration (FIG. 2)) stood at 20%.
